Measured values as given in patent US20120321685A1, “COMPOSITIONS CONTAINING OILS HAVING A SPECIFIC GRAVITY HIGHER THAN THE SPECIFIC GRAVITY OF WATER” (SOL-GEL TECHNOLOGIES LTD., priority 2001, published 2012).

Experiments:
[1] = Solubility of BMDBM and other solid sunscreen actives in different solvents; type: physicochemical; settings: in Dipropylene glycol Dibenzoate (Finetex Finsolv PG-22), 25° C.
Method: The solubility of commonly used sunscreen active ingredients was tested by heating a solution of below-mentioned solvents or their mixture to 50° C. under stirring. Access amount of the sunscreen active was added. After thorough mixing to dissolve the solid, the solution was allowed to cool to 25° C. over night in the water bath under constant oscillation and the access active precipitated. The solution was filtered using 0.2 μm PTFE filter, and the concentration of BMDBM was determined by HPLC equipped with UV diode array detector against standard solution of BMDBM. For the other sunscreen actives, the concentration of the active was determined spectroscopically against standard solution of the active. Table 1 lists the solubility values obtained for BMDBM and other sunscreen actives in different commercially available solvents.

[2] = cited from earlier work
[3] = Solubility of benzoyl peroxide in Finsolve PG-22; type: physicochemical
Method: The solubility of benzoyl peroxide in dipropylene glycol dibenzoate (Finsolv PG 22) was measured in a method similar to Example 1. Benzoyl peroxide concentration was determined by titration according to USP. The solubility of benzoyl peroxide in Finsolve PG-22 is 6 wt. %.

| SMILES | Solvent specific gravity, acc. to D25/25 [2] | also measured |
| --- | --- | --- |
| COc1ccc(C(=O)c2ccccc2)c(O)c1 [Benzophenone-3] |  | Solubility, concentration [1]: 26.6 wt % |
| CCC(=O)OCc1ccccc1 [Benzyl propionate] | 1.028-1.032 |  |
| CC(COC(=O)c1ccccc1)OCC(C)OC(=O)c1ccccc1 (stereo not drawn) [Dermol DPG-2B, Dipropylene glycol Dibenzoate] | 1.117 |  |
| CCOC(=O)c1ccccc1 [Ethyl benzoate] | 1.043-1.046 |  |
| CCOC(=O)c1ccccc1O [Ethyl salicylate] | 1.126-1.130 |  |
| CC(COC(=O)c1ccccc1)OCC(C)OC(=O)c1ccccc1 (stereo not drawn) [Finsolv PG-22, Dipropylene glycol Dibenzoate] | 1.12 |  |
| Cc1ccc(/C=C2/C(=O)C3(C)CCC2C3(C)C)cc1 (stereo not drawn) [Methyl benzyledene camphor] |  | Solubility, concentration [1]: 30.16 wt % |
| O=C(OOC(=O)c1ccccc1)c1ccccc1 [benzoyl peroxide] |  | Solvent quality of dipropylene glycol dibenzoate for BPO ([3]; in dipropylene glycol dibenzoate): good solvent; Solubility of benzoyl peroxide in Finsolve PG-22 ([3]; in dipropylene glycol dibenzoate (Finsolv PG 22), method similar to Example 1, titration according to USP): 6 wt. % |
